Measured values: PubChem BioAssay (NCI)
Several values for one entry are separate records, joined by “and”; a condition that tells them apart may be missing. Equal values may be shown once.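 Where inhibition never reached the appropriate level, the endpoint shown equals the highest concentration tested. Otherwise, values were interpolated linearly from a five-concentration, 48-hour dose response in 96-well plates. At the GI50, growth is halved. The concentration for full growth arrest is given as TGI.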

Assays:
Test in all cases: inhibition of tumour cell growth, NCI panel, 48 h
CCRF-CEM leukemia = test system: CCRF-CEM leukemia
EKVX NSCLC = test system: EKVX NSCLC
HCC-2998 colon = test system: HCC-2998 colon
HL-60(TB) leukemia = test system: HL-60(TB) leukemia
MDA-MB-435 = test system: MDA-MB-435
NCI-H23 lung = test system: NCI-H23 lung
OVCAR-4 ovarian = test system: OVCAR-4 ovarian
RPMI-8226 leukemia = test system: RPMI-8226 leukemia
SF-268 CNS = test system: SF-268 CNS
SR leukemia = test system: SR leukemia

| Structure (SMILES) | TGI (CCRF-CEM leukemia) [µM] | TGI (EKVX NSCLC) | TGI (HCC-2998 colon) [µM] | TGI (HL-60(TB) leukemia) [µM] | TGI (MDA-MB-435) [µM] | TGI (NCI-H23 lung) [µM] | TGI (OVCAR-4 ovarian) | TGI (RPMI-8226 leukemia) [µM] | TGI (SF-268 CNS) | TGI (SR leukemia) [µM] | GI50 (CCRF-CEM leukemia) | GI50 (HCC-2998 colon) | GI50 (HL-60(TB) leukemia) | GI50 (MDA-MB-435) | GI50 (NCI-H23 lung) | GI50 (OVCAR-4 ovarian) | GI50 (RPMI-8226 leukemia) | GI50 (SF-268 CNS) | GI50 (SR leukemia) | GI50 (EKVX NSCLC) |
| --- | --- | --- | --- | --- | --- | --- | --- | --- | --- | --- | --- | --- | --- | --- | --- | --- | --- | --- | --- | --- |
| CC1=C(C(=O)Nc2ccccc2)C(c2ccc(N(C)C)cc2)C(C(=O)Nc2ccccc2)=C(C)N1 | 57.7 | > 100 µM | 23.4 | 49.4 | > 26.7 | > 100 | > 100 µM | 72.9 | > 71.6 µM | > 92.8 | – | – | – | – | – | – | – | – | – | – |
| CCCCCCN(CCCCCC)C(=S)N/N=C(\C)c1ccccn1 | 4.39 | 3.01 µM | 9.03 | 2.3 | 3.7 | 3.27 | 3.16 µM | 3.22 | 3.52 µM | 11.5 | – | – | – | – | – | – | – | – | – | – |
| N#CC1c2ccccc2C=CN1C(=O)CCCl (stereo unspecified) | 21.2 | – | 32 | 40.8 | 27.1 | 40.9 | 10.7 µM | 9.25 | 30.9 µM | 26.7 | 3.45 µM | 16.9 µM | 9.09 µM | 12.4 µM | 17.6 µM | 2.79 µM | 2.66 µM | 15.2 µM | 3.07 µM | – |
| O=C1c2cccc(Oc3ccccc3)c2C(=O)c2cccc(Oc3ccccc3)c21 | 30.3 | > 100 µM | > 100 | > 100 | > 100 | > 100 | – | > 100 | > 100 µM | > 100 | 7.14 µM | > 100 µM | > 100 µM | > 100 µM | > 100 µM | – | > 100 µM | 39.8 µM | 77.5 µM | > 100 µM |
| Cc1c(C(=N)C(C#N)C#N)c(=N)oc2c1ccc1ccccc12 | > 100 | > 100 µM | 39.3 | 85.8 | > 100 | > 100 | > 100 µM | 78.3 | > 100 µM | > 100 | 13 µM | 18 µM | 8.76 µM | 22.2 µM | 16.8 µM | 19.7 µM | 20.8 µM | 46.5 µM | 7.64 µM | 4.45 µM |
| Cc1cccc(NC(=O)c2sc3nc4c(cc3c2N)C(=O)CCC4)c1 | > 100 | – | > 100 | > 100 | 0.126 | > 60.4 | 32.5 µM | > 100 | > 100 µM | > 100 | 2.26 µM | 0.54 µM | 0.393 µM | 0.0302 µM | 0.67 µM | 0.706 µM | 0.594 µM | 3.07 µM | 0.445 µM | – |
| O=C1CC(c2ccccc2)Oc2ccccc21 (stereo unspecified) | 57.4 | > 100 µM | > 100 | 49.5 | > 100 | 45.5 | > 100 µM | 37.9 | > 100 µM | 50.6 | – | – | – | – | – | – | – | – | – | – |
| CC(C)(CO)CNC(=O)c1ccc2[nH]c(O)c(N=Nc3ccc(S(N)(=O)=O)cc3)c2c1 | > 25 | > 25 µM | > 25 | > 25 | > 25 | > 25 | > 25 µM | > 25 | > 25 µM | > 25 | > 25 µM | > 25 µM | > 25 µM | > 25 µM | > 25 µM | > 25 µM | > 25 µM | > 25 µM | > 25 µM | > 25 µM |
| Cc1nn(-c2ccc(Cl)cc2)c2ncnc(N/N=C/c3ccccc3O)c12 | > 100 | 30.8 µM and > 100 µM | > 100 | 40.7 | > 100 | > 55 | 50.9 µM and 14.2 µM | > 100 | 15.9 µM and > 37.3 µM | 43.5 | 0.342 µM and 0.23 µM | 0.464 µM and 0.742 µM | 0.335 µM and 0.305 µM | 1.1 µM and 0.571 µM | 2.05 µM and 0.721 µM | 0.436 µM and 0.237 µM | 0.699 µM and 0.714 µM | 0.401 µM and 0.312 µM | 0.445 µM and 0.206 µM | 0.96 µM and 0.993 µM |
| CC(Br)C(=O)NC(CO)C(=O)O (stereo unspecified) | > 100 | > 100 µM | – | > 100 | > 100 | > 100 | > 100 µM | > 100 | > 100 µM | > 100 | – | – | – | – | – | – | – | – | – | – |
| O=C(Nc1cccc(-n2cc(-c3ccncc3)c(-c3cc(O)cc(Cl)c3)n2)c1)c1ccc(N2CCOCC2)c(C(F)(F)F)c1 | > 100 | – | 7.95 | 3.04 | > 100 | 38.8 | > 100 µM | 2.31 | > 100 µM | 1.83 | 0.543 µM | 1.82 µM | 0.81 µM | 2.05 µM | 3.65 µM | > 100 µM | 0.398 µM | 8.51 µM | 0.338 µM | – |
| O=C(NCCNCCO)c1ccc2c(c1)oc1cc3ccccc3c(=O)n12 | – | > 50 µM | – | > 50 | > 50 | > 50 | > 50 µM | > 50 | > 50 µM | > 50 | – | – | 25.6 µM | > 50 µM | 22.5 µM | > 50 µM | 33.8 µM | 19.6 µM | 24.8 µM | 37.8 µM |
| Nc1ncnc2c1N=C(c1ccc3c(c1)OCO3)CC(c1ccc(Cl)cc1)N2 (stereo unspecified) | – | > 100 µM | 35 | > 100 | > 100 | > 100 | 35.2 µM | 8.33 | 45.9 µM | > 100 | – | 5.88 µM | 5.38 µM | 56.3 µM | 21.4 µM | 4.58 µM | 1.5 µM | 8.52 µM | > 100 µM | 40.6 µM |
| CSC1=Nc2c(c(C)c(C)n2COC(CO)CO)C2=NC(=O)CN12 | > 100 | > 100 µM | > 100 | – | > 100 | > 100 | > 100 µM | > 100 | > 100 µM | > 100 | > 100 µM | > 100 µM | – | > 100 µM | > 100 µM | > 100 µM | > 100 µM | > 100 µM | > 100 µM | > 100 µM |
| Cn1c([N+](=O)[O-])cnc1C=C1C(=O)c2ccccc2C1=O | 6.53 | – | 32.2 | 6.08 | 11.7 | 20.5 | 55.4 µM | 13 | 16.7 µM | 10.5 | 1.85 µM | 13.5 µM | 2.27 µM | 2.67 µM | 4.9 µM | 6.36 µM | 3.36 µM | 3.95 µM | 1.87 µM | – |
